# Tests used:
# Type in all cases: functional
# [1] = system: Pseudomonas aeruginosa; assay: Antimicrobial activity against carbapenem-resistant Pseudomonas aeruginosa assessed as resistant isolates by broth microdilution method
# [2] = system: Staphylococcus epidermidis; assay: Antimicrobial activity against methicillin-resistant Staphylococcus epidermidis isolated from ICU patient wound assessed as resistant isolates by broth microdilution method
# [3] = system: Staphylococcus epidermidis; assay: Antimicrobial activity against methicillin-susceptible Staphylococcus epidermidis assessed as resistant isolates by broth microdilution method
# [4] = system: Enterobacter cloacae; assay: Antimicrobial activity against carbapenem-resistant Enterobacter cloacae assessed as resistant isolates by broth microdilution method
# [5] = system: Staphylococcus aureus; assay: Antimicrobial activity against methicillin-resistant Staphylococcus aureus isolated from ICU patient respiratory tract assessed as resistant isolates by broth microdilution method
# [6] = system: Streptococcus pneumoniae; assay: Antimicrobial activity against penicillin-resistant Streptococcus pneumoniae isolated from ICU patient respiratory tract assessed as resistant isolates by broth microdilution method
# [7] = system: Pseudomonas aeruginosa; assay: Antimicrobial activity against carbapenem-resistant Pseudomonas aeruginosa isolated from ICU patient wound assessed as resistant isolates by broth microdilution method
# [8] = system: Staphylococcus epidermidis; assay: Antimicrobial activity against methicillin-susceptible Staphylococcus epidermidis isolated from ICU patient blood assessed as resistant isolates by broth microdilution method
# [9] = system: Streptococcus pneumoniae; assay: Antimicrobial activity against penicillin-resistant Streptococcus pneumoniae assessed as resistant isolates by broth microdilution method
# [10] = system: Klebsiella pneumoniae; assay: Antimicrobial activity against ESBL producing Klebsiella pneumoniae assessed as resistant isolates by broth microdilution method
# [11] = system: Haemophilus influenzae; assay: Antimicrobial activity against Haemophilus influenzae isolated from ICU patient blood assessed as resistant isolates by broth microdilution method
# [12] = system: Haemophilus influenzae; assay: Antimicrobial activity against Haemophilus influenzae isolated from ICU patient wound assessed as resistant isolates by broth microdilution method
# [13] = system: Staphylococcus epidermidis; assay: Antimicrobial activity against methicillin-resistant Staphylococcus epidermidis assessed as resistant isolates by broth microdilution method
# [14] = system: Klebsiella pneumoniae; assay: Antimicrobial activity against ESBL producing Klebsiella pneumoniae isolated from ICU patient wound assessed as resistant isolates by broth microdilution method
# [15] = system: Pseudomonas aeruginosa; assay: Antimicrobial activity against carbapenem-resistant Pseudomonas aeruginosa isolated from ICU patient blood assessed as resistant isolates by broth microdilution method
# [16] = system: Haemophilus influenzae; assay: Antimicrobial activity against Haemophilus influenzae assessed as resistant isolates by broth microdilution method
# [17] = system: Klebsiella pneumoniae; assay: Antimicrobial activity against ESBL producing Klebsiella pneumoniae isolated from ICU patient respiratory tract assessed as resistant isolates by broth microdilution method
# [18] = system: Staphylococcus epidermidis; assay: Antimicrobial activity against methicillin-susceptible Staphylococcus epidermidis isolated from ICU patient urine assessed as resistant isolates by broth microdilution method
# [19] = system: Pseudomonas aeruginosa; assay: Antimicrobial activity against carbapenem-resistant Pseudomonas aeruginosa isolated from ICU patient urine assessed as resistant isolates by broth microdilution method
# [20] = system: Escherichia coli; assay: Antimicrobial activity against CTX-M ESBL producing Escherichia coli assessed as resistant isolates by broth microdilution method
# [21] = system: Enterobacter cloacae; assay: Antimicrobial activity against carbapenem-resistant Enterobacter cloacae isolated from ICU patient blood assessed as resistant isolates by broth microdilution method
# [22] = system: Klebsiella pneumoniae; assay: Antimicrobial activity against ESBL producing Klebsiella pneumoniae isolated from ICU patient urine assessed as resistant isolates by broth microdilution method
# [23] = system: Pseudomonas aeruginosa; assay: Antimicrobial activity against carbapenem-resistant Pseudomonas aeruginosa isolated from ICU patient respiratory tract assessed as resistant isolates by broth microdilution method
# [24] = system: Staphylococcus aureus; assay: Antimicrobial activity against methicillin-susceptible Staphylococcus aureus isolated from ICU patient wound assessed as resistant isolates by broth microdilution method
# [25] = system: Staphylococcus epidermidis; assay: Antimicrobial activity against methicillin-susceptible Staphylococcus epidermidis isolated from ICU patient wound assessed as resistant isolates by broth microdilution method
# [26] = system: Escherichia coli; assay: Antimicrobial activity against CTX-M ESBL producing Escherichia coli isolated from ICU patient blood assessed as resistant isolates by broth microdilution method
# [27] = system: Staphylococcus aureus; assay: Antimicrobial activity against methicillin-resistant Staphylococcus aureus isolated from ICU patient blood assessed as resistant isolates by broth microdilution method
# [28] = system: Escherichia coli; assay: Antimicrobial activity against CTX-M ESBL producing Escherichia coli isolated from ICU patient urine assessed as resistant isolates by broth microdilution method
# [29] = system: Staphylococcus aureus; assay: Antimicrobial activity against methicillin-susceptible Staphylococcus aureus isolated from ICU patient urine assessed as resistant isolates by broth microdilution method
# [30] = system: Escherichia coli; assay: Antimicrobial activity against CTX-M ESBL producing Escherichia coli isolated from ICU patient respiratory tract assessed as resistant isolates by broth microdilution method
# [31] = system: Staphylococcus aureus; assay: Antimicrobial activity against methicillin-resistant Staphylococcus aureus isolated from ICU patient urine assessed as resistant isolates by broth microdilution method
# [32] = system: Enterobacter cloacae; assay: Antimicrobial activity against carbapenem-resistant Enterobacter cloacae isolated from ICU patient urine assessed as resistant isolates by broth microdilution method
# [33] = system: Klebsiella pneumoniae; assay: Antimicrobial activity against ESBL producing Klebsiella pneumoniae isolated from ICU patient blood assessed as resistant isolates by broth microdilution method
# [34] = system: Staphylococcus aureus; assay: Antimicrobial activity against methicillin-susceptible Staphylococcus aureus isolated from ICU patient blood assessed as resistant isolates by broth microdilution method
# [35] = system: Staphylococcus aureus; assay: Antimicrobial activity against methicillin-resistant Staphylococcus aureus isolated from ICU patient wound assessed as resistant isolates by broth microdilution method
# [36] = system: Staphylococcus aureus; assay: Antimicrobial activity against methicillin-susceptible Staphylococcus aureus assessed as resistant isolates by broth microdilution method
# [37] = system: Staphylococcus epidermidis; assay: Antimicrobial activity against methicillin-resistant Staphylococcus epidermidis isolated from ICU patient urine assessed as resistant isolates by broth microdilution method
# [38] = system: Haemophilus influenzae; assay: Antimicrobial activity against Haemophilus influenzae isolated from ICU patient respiratory tract assessed as resistant isolates by broth microdilution method
# [39] = system: Staphylococcus aureus; assay: Antimicrobial activity against methicillin-resistant Staphylococcus aureus assessed as resistant isolates by broth microdilution method
# [40] = system: Staphylococcus aureus; assay: Antimicrobial activity against methicillin-susceptible Staphylococcus aureus isolated from ICU patient respiratory tract assessed as resistant isolates by broth microdilution method
# [41] = system: Escherichia coli; assay: Antimicrobial activity against CTX-M ESBL producing Escherichia coli isolated from ICU patient wound assessed as resistant isolates by broth microdilution method
# [42] = system: Enterobacter cloacae; assay: Antimicrobial activity against carbapenem-resistant Enterobacter cloacae isolated from ICU patient wound assessed as resistant isolates by broth microdilution method
# [43] = system: Streptococcus pneumoniae; assay: Antimicrobial activity against penicillin-resistant Streptococcus pneumoniae isolated from ICU patient blood assessed as resistant isolates by broth microdilution method
# [44] = system: Streptococcus pneumoniae; assay: Antimicrobial activity against penicillin-resistant Streptococcus pneumoniae isolated from ICU patient wound assessed as resistant isolates by broth microdilution method
# [45] = system: Staphylococcus epidermidis; assay: Antimicrobial activity against methicillin-susceptible Staphylococcus epidermidis isolated from ICU patient respiratory tract assessed as resistant isolates by broth microdilution method
# [46] = system: Staphylococcus epidermidis; assay: Antimicrobial activity against methicillin-resistant Staphylococcus epidermidis isolated from ICU patient blood assessed as resistant isolates by broth microdilution method
# [47] = system: Enterobacter cloacae; assay: Antimicrobial activity against carbapenem-resistant Enterobacter cloacae isolated from ICU patient respiratory tract assessed as resistant isolates by broth microdilution method
compound,measurement,setting,value
CO/N=C(\C(=O)N[C@@H]1C(=O)N2C(C(=O)O)=C(CSc3nc(=O)c(O)nn3C)CS[C@H]12)c1csc(N)n1 [CEFTRIAXONE],Activity,[1],30%
same,Activity,[2],100%
same,Activity,[3],8.1%
same,Activity,[4],13.9%
same,Activity,[5],100%
same,Activity,[6],0%
same,Activity,[7],30.2%
same,Activity,[8],1.8%
same,Activity,[9],0%
same,Activity,[10],0.4%
same,Activity,[11],0%
same,Activity,[12],0%
same,Activity,[13],100%
same,Activity,[14],3.9%
same,Activity,[15],51.5%
same,Activity,[16],0.3%
same,Activity,[17],0%
same,Activity,[18],0%
same,Activity,[19],33.3%
same,Activity,[20],3.7%
same,Activity,[21],29.2%
same,Activity,[22],0%
same,Activity,[23],27%
same,Activity,[24],0%
same,Activity,[25],25%
same,Activity,[26],5.5%
same,Activity,[27],100%
same,Activity,[28],4.2%
same,Activity,[29],0%
same,Activity,[30],2.5%
same,Activity,[31],100%
same,Activity,[32],25%
same,Activity,[33],0%
same,Activity,[34],0%
same,Activity,[35],100%
same,Activity,[36],0%
same,Activity,[37],100%
same,Activity,[38],0.3%
same,Activity,[39],100%
same,Activity,[40],0%
same,Activity,[41],1.7%
same,Activity,[42],5.9%
same,Activity,[43],0%
same,Activity,[44],0%
same,Activity,[45],0%
same,Activity,[46],100%
same,Activity,[47],10.2%
